Laboratory results as given in patent US9120812B2, “Pyrimidooxazocine derivatives as mTOR-inhibitors” (SANOFI, priority 2012, dated 2015).

Experiments:
[1] = target: mTOR (human recombinant aa mTOR 1360-2549) (Homo sapiens (Human), UniProt P42345); test: mTOR enzymatic test by TR-FRET (phosphorylation of GFP-4EBP1); format: biochemical
Procedure, shortened: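 After a 30 min room-temperature kinase reaction, EDTA (10 mM final) and Tb-labelled phospho-Thr46 antibody (2 nM final) were added and incubated 60 min. Energy transfer from Tb to phosphorylated GFP-4EBP1 was read at 340 nm excitation, emissions 490/520 nm. Values derive from the 520/490 fluorescence ratio.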

Akt-pS473 in U87MG cells = details: Homo sapiens, U-87 MG, read-out: U87 Akt-pS473 % Inhibition or IC50, nM (IC50), U87MG cells
PI3Kα (p110α/p85α) = PI3Kα (p110α/p85α) (Homo sapiens (Human), UniProt P42336); test: PI3Kα enzymatic test by measuring the consumption of ATP; format: biochemical
Sequence of PI3Kα (p110α/p85α) (P42336 whole entry): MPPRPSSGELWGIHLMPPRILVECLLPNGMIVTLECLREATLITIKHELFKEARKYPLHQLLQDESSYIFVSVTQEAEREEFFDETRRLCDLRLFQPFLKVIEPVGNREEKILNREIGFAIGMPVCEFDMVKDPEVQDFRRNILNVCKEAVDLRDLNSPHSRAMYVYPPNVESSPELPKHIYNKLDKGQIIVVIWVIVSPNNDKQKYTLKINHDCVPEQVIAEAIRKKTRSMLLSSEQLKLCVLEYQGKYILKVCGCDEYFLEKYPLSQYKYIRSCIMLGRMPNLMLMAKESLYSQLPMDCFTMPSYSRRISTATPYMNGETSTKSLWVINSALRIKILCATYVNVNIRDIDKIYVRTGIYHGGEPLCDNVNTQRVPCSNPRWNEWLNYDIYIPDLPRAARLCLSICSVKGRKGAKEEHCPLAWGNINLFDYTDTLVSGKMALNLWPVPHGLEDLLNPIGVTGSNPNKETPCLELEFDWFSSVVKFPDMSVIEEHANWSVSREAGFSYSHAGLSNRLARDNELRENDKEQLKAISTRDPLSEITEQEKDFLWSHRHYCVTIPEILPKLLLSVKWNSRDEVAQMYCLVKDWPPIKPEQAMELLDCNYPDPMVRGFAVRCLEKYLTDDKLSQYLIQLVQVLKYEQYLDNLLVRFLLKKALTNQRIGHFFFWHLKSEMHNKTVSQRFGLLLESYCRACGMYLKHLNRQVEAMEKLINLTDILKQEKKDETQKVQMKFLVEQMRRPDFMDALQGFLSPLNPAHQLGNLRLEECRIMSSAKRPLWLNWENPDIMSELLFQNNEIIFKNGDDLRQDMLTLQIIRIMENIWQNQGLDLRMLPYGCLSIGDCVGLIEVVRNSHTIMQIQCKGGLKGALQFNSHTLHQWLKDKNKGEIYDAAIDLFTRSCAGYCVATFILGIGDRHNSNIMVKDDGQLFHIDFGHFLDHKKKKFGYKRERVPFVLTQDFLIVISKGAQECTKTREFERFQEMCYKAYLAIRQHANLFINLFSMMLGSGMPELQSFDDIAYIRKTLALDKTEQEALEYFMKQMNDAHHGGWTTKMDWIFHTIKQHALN
Sequence of PI3Kα (p110α/p85α) (P27986 whole entry partner): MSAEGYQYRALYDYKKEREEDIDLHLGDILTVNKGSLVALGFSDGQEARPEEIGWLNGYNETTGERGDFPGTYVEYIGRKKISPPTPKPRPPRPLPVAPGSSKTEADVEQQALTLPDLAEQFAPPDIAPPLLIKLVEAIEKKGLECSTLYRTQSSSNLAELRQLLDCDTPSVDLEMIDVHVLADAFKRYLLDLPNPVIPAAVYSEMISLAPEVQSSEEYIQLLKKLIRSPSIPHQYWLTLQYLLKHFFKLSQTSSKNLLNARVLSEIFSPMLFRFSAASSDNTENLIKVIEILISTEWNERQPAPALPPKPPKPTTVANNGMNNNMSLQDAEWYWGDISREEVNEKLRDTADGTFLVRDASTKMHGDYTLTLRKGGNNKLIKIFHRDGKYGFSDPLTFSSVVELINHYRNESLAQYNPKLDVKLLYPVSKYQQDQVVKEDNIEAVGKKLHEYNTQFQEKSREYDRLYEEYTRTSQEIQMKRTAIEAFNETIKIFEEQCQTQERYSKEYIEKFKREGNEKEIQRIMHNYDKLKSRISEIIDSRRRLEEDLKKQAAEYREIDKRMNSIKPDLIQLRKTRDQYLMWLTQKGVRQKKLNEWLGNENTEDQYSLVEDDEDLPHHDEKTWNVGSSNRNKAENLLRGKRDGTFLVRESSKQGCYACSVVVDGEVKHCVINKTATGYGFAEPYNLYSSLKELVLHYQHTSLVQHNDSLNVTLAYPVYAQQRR
Procedure, shortened: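 ATP consumption read out by KinaseGlo luminescence after a 90 min reaction of 1.7 μg/ml PI3Kα (p110α/p85α) with 2 μM ATP and 50 μM PIP2, buffered at pH 7.5 (Tris, 10 mM MgCl2, 1 mM EGTA, 0.03% Chaps, 1 mM DTT). Threefold dilution series over ≥10 000-fold range yield IC50.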

U87MG tumour cells = test: Test of in vitro proliferation of U87MG tumour cells; format: cell-based; details: Homo sapiens, U-87 MG, 72 h, U87MG cells, 72 hours; read-out: U87 Cell Proliferation IC50
Method: Model 4: Test of in vitro Proliferation of U87MG Tumour Cells.
The cell growth is determined with the reagent CellTiter 96 AQueous One Solution Cell Proliferation Assay from Promega (Cat. No. G3581).

Sequence of mTOR (human recombinant aa mTOR 1360-2549) (P42345 1360-2549): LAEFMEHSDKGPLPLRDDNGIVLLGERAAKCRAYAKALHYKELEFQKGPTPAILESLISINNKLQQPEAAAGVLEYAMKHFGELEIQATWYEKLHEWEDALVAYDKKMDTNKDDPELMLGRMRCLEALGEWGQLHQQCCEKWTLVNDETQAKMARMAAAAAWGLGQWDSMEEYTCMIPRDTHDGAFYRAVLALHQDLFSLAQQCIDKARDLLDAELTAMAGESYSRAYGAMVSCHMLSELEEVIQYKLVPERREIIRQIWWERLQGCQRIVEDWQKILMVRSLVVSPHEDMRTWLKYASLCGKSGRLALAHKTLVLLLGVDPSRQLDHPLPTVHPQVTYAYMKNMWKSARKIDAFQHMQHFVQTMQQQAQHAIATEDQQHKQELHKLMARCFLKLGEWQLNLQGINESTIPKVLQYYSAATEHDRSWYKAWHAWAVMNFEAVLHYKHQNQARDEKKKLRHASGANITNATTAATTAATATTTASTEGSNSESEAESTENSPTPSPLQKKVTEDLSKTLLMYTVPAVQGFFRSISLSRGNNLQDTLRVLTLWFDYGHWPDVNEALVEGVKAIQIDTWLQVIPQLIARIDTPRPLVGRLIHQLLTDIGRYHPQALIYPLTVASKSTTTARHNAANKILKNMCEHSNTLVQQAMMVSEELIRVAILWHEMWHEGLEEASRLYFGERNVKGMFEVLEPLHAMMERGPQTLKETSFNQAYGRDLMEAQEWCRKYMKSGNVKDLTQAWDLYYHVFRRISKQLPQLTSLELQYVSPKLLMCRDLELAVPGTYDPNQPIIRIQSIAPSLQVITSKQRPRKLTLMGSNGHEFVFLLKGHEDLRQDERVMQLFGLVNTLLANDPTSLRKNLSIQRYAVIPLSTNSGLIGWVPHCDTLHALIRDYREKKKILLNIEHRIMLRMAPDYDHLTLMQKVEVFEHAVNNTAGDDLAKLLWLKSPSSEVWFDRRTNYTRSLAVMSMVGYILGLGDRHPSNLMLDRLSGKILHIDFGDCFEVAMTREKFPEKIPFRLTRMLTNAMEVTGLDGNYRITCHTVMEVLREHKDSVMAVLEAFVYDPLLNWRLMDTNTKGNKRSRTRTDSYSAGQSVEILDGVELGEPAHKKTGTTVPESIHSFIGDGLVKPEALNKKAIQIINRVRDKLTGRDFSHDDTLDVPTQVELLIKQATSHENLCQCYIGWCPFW

CCN1CC(C)(C)Oc2nc(N3CCOC[C@@H]3C)nc(-c3ccc(NC(=O)Nc4cnccn4)c(F)c3)c2C1=O [Example 160, 1-{4-[6-Ethyl-8,8-dimethyl-2-((S)-3-methylmorpholin-4-yl)-5-oxo-5,6,7,8-tetrahydro-9-oxa-1,3,6-triazabenzocyclohepten-4-yl]-2-fluorophenyl}-3-pyrazin-2-ylurea]
IC50 [1]: 41 nM
IC50 (Akt-pS473 in U87MG cells): 114 nM
PI3Ka IC50 (PI3Kα (p110α/p85α)): 4900 nM
IC50 (U87MG tumour cells): 744 nM

CCN1CC(C)(C)Oc2nc(N3CC4CCC(C3)O4)nc(-c3ccc(NC(=O)Nc4ccnc(N(C)C)c4)c(F)c3)c2C1=O [Example 78, 1-(2-Dimethylaminopyridin-4-yl)-3-{4-[6-ethyl-8,8-dimethyl-2-(8-oxa-3-azabicyclo[3.2.1]oct-3-yl)-5-oxo-5,6,7,8-tetrahydro-9-oxa-1,3,6-triazabenzocyclohepten-4-yl]-2-fluorophenyl}urea]
IC50 [1]: 90 nM
IC50 (Akt-pS473 in U87MG cells): 28 nM
PI3Ka IC50 (PI3Kα (p110α/p85α)): 6260 nM
IC50 (U87MG tumour cells): 83 nM

COCCN1CC(C)(C)Oc2nc(N3CCOC[C@@H]3C)nc(-c3ccc(NC(=O)Nc4ccc(F)cc4F)cc3)c2C1=O [Example 188, 1-(2,4-Difluorophenyl)-3-{4-[6-(2-methoxyethyl)-8,8-dimethyl-2-((S)-3-methylmorpholin-4-yl)-5-oxo-5,6,7,8-tetrahydro-9-oxa-1,3,6-triazabenzocyclohepten-4-yl]phenyl}urea]
IC50 [1]: 63 nM
IC50 (Akt-pS473 in U87MG cells): 45 nM
PI3Ka IC50 (PI3Kα (p110α/p85α)): 2330 nM
IC50 (U87MG tumour cells): 505 nM

Cc1ccc(NC(=O)Nc2ccc(-c3nc(N4CC5CCC(C4)O5)nc4c3C(=O)N(C)CC(C)(C)O4)cc2F)cn1 [Example 66, 1-{2-Fluoro-4-[6,8,8-trimethyl-2-(8-oxa-3-azabicyclo[3.2.1]oct-3-yl)-5-oxo-5,6,7,8-tetrahydro-9-oxa-1,3,6-triazabenzocyclohepten-4-yl]phenyl}-3-(6-methylpyridin-3-yl)urea]
IC50 [1]: 16 nM
IC50 (Akt-pS473 in U87MG cells): 21 nM
PI3Ka IC50 (PI3Kα (p110α/p85α)): 2950 nM
IC50 (U87MG tumour cells): 71 nM

CCN1CC(C)(C)Oc2nc(N3C4CCC3COC4)nc(-c3ccc(NC(=O)NC)c(F)c3)c2C1=O [Example 207, 1-{4-[6-Ethyl-8,8-dimethyl-2-(3-oxa-8-azabicyclo[3.2.1]oct-8-yl)-5-oxo-5,6,7,8-tetrahydro-9-oxa-1,3,6-triazabenzocyclohepten-4-yl]-2-fluorophenyl}-3-methylurea]
IC50 [1]: 18 nM
IC50 (Akt-pS473 in U87MG cells): 19 nM
PI3Ka IC50 (PI3Kα (p110α/p85α)): >10000 nM
IC50 (U87MG tumour cells): 74 nM

CN1CC(C)(C)Oc2nc(N3CC4CCC(C3)O4)nc(-c3ccc(NC(=O)Nc4ccncc4F)cc3)c2C1=O [Example 85, 1-(3-Fluoropyridin-4-yl)-3-{4-[6,8,8-trimethyl-2-(8-oxa-3-azabicyclo[3.2.1]oct-3-yl)-5-oxo-5,6,7,8-tetrahydro-9-oxa-1,3,6-triazabenzocyclohepten-4-yl]phenyl}urea]
IC50 [1]: 24 nM
IC50 (Akt-pS473 in U87MG cells): 28 nM
PI3Ka IC50 (PI3Kα (p110α/p85α)): 1950 nM
IC50 (U87MG tumour cells): 77 nM

CCN1CC(C)(C)Oc2nc(N3CC4CCC(C3)O4)nc(-c3ccc(NC(=O)Nc4ccc(C#N)nc4)c(F)c3)c2C1=O [Example 247, 1-(6-Cyanopyridin-3-yl)-3-{4-[6-ethyl-8,8-dimethyl-2-(8-oxa-3-azabicyclo[3.2.1]oct-3-yl)-5-oxo-5,6,7,8-tetrahydro-9-oxa-1,3,6-triazabenzocyclohepten-4-yl]-2-fluorophenyl}urea]
IC50 [1]: 26 nM
IC50 (Akt-pS473 in U87MG cells): 8 nM
PI3Ka IC50 (PI3Kα (p110α/p85α)): 7200 nM
IC50 (U87MG tumour cells): 62 nM

CCN1CC(C)(C)Oc2nc(N3CCOC[C@@H]3C)nc(-c3ccc(NC(=O)Nc4ccc(C(=O)N5CCC(N(C)C)CC5)cc4)cc3)c2C1=O [Example 23, 1-[4-(4-dimethylaminopiperidine-1-carbonyl)phenyl]-3-{4-[6-ethyl-8,8-dimethyl-2-((S)-3-methylmorpholin-4-yl)-5-oxo-5,6,7,8-tetrahydro-9-oxa-1,3,6-triazabenzocyclohepten-4-yl]phenyl}urea]
IC50 [1]: 51 nM
IC50 (Akt-pS473 in U87MG cells): 62 nM
PI3Ka IC50 (PI3Kα (p110α/p85α)): 79 nM
IC50 (U87MG tumour cells): 30 nM

CCN1CC(C)(C)Oc2nc(N3CC4CCC(C3)O4)nc(-c3ccc(Nc4nnc(C)[nH]4)c(F)c3)c2C1=O [Example 152, 6-Ethyl-4-[3-fluoro-4-(5-methyl-4H-[1,2,4]triazol-3-ylamino)phenyl]-8,8-dimethyl-2-(8-oxa-3-azabicyclo[3.2.1]oct-3-yl)-7,8-dihydro-6H-9-oxa-1,3,6-triazabenzocyclohepten-5-one]
IC50 [1]: 348 nM
IC50 (Akt-pS473 in U87MG cells): 257 nM
PI3Ka IC50 (PI3Kα (p110α/p85α)): >10000 nM
IC50 (U87MG tumour cells): 2680 nM

CCN1CC(C)(C)Oc2nc(N3C4CCC3COC4)nc(-c3ccc(NC(=O)Nc4cc(C)nc(C)n4)cc3)c2C1=O [Example 93, 1-(2,6-Dimethylpyrimidin-4-yl)-3-{4-[6-ethyl-8,8-dimethyl-2-(3-oxa-8-azabicyclo[3.2.1]oct-8-yl)-5-oxo-5,6,7,8-tetrahydro-9-oxa-1,3,6-triazabenzocyclohepten-4-yl]phenyl}urea]
IC50 [1]: 72 nM
IC50 (Akt-pS473 in U87MG cells): 65 nM
PI3Ka IC50 (PI3Kα (p110α/p85α)): >10000 nM
IC50 (U87MG tumour cells): 410 nM

C[C@@H]1COCCN1c1ccc(NC(=O)Nc2ccc(-c3nc(N4CC5CCC(C4)O5)nc4c3C(=O)N(C)CC(C)(C)O4)cc2F)cn1 [Example 87, 1-{2-Fluoro-4-[6,8,8-trimethyl-2-(8-oxa-3-azabicyclo[3.2.1]oct-3-yl)-5-oxo-5,6,7,8-tetrahydro-9-oxa-1,3,6-triazabenzocyclohepten-4-yl]phenyl}-3-[6-((R)-3-methylmorpholin-4-yl)pyridin-3-yl]urea]
IC50 [1]: 57 nM
IC50 (Akt-pS473 in U87MG cells): 20 nM
PI3Ka IC50 (PI3Kα (p110α/p85α)): >10000 nM
IC50 (U87MG tumour cells): 59 nM

CCN1CC(C)(C)Oc2nc(N3CC4CCC(C3)O4)nc(-c3ccc(NC(=O)Nc4ccnc(N5CCN(S(C)(=O)=O)CC5)c4)c(F)c3)c2C1=O [Example 80, 1-{4-[6-Ethyl-8,8-dimethyl-2-(8-oxa-3-azabicyclo[3.2.1]oct-3-yl)-5-oxo-5,6,7,8-tetrahydro-9-oxa-1,3,6-triazabenzocyclohepten-4-yl]-2-fluorophenyl}-3-[2-(4-methanesulfonylpiperazin-1-yl)pyridin-4-yl]urea]
IC50 [1]: 72 nM
IC50 (Akt-pS473 in U87MG cells): 48 nM
PI3Ka IC50 (PI3Kα (p110α/p85α)): >10000 nM
IC50 (U87MG tumour cells): 151 nM

CCN1CC(C)(C)Oc2nc(N3CC4CCC(C3)O4)nc(-c3ccc(NC(=O)Nc4cnc(N5CCOCC5)cn4)c(F)c3)c2C1=O [Example 233, 1-{4-[6-Ethyl-8,8-dimethyl-2-(8-oxa-3-azabicyclo[3.2.1]oct-3-yl)-5-oxo-5,6,7,8-tetrahydro-9-oxa-1,3,6-triazabenzocyclohepten-4-yl]-2-fluorophenyl}-3-(5-morpholin-4-ylpyrazin-2-yl)urea]
IC50 [1]: 68 nM
IC50 (Akt-pS473 in U87MG cells): 87 nM
PI3Ka IC50 (PI3Kα (p110α/p85α)): >10000 nM
IC50 (U87MG tumour cells): 908 nM

CCN1CC(C)(C)Oc2nc(N3C4CCC3COC4)nc(-c3ccc(NC(=O)OCCO)cc3)c2C1=O [Example 65, {4-[6-Ethyl-8,8-dimethyl-2-(3-oxa-8-azabicyclo[3.2.1]oct-8-yl)-5-oxo-5,6,7,8-tetrahydro-9-oxa-1,3,6-triazabenzocyclohepten-4-yl]phenyl}carbamic acid 2-hydroxyethyl ester]
IC50 [1]: 27 nM
IC50 (Akt-pS473 in U87MG cells): 27 nM
PI3Ka IC50 (PI3Kα (p110α/p85α)): 22400 nM
IC50 (U87MG tumour cells): 257 nM

CCN1CC(C)(C)Oc2nc(N3CC4CCC(C3)O4)nc(-c3ccc(NC(=O)NC4CC4)c(F)c3)c2C1=O [Example 133, 1-Cyclopropyl-3-{4-[6-ethyl-8,8-dimethyl-2-(8-oxa-3-azabicyclo[3.2.1]oct-3-yl)-5-oxo-5,6,7,8-tetrahydro-9-oxa-1,3,6-triazabenzocyclohepten-4-yl]-2-fluorophenyl}urea]
IC50 [1]: 33 nM
IC50 (Akt-pS473 in U87MG cells): 92 nM
PI3Ka IC50 (PI3Kα (p110α/p85α)): >10000 nM
IC50 (U87MG tumour cells): 219 nM

CCN1CC(C)(C)Oc2nc(N3CC4CCC(C3)O4)nc(-c3ccc(NC(=O)Nc4ccnc(OC)n4)c(F)c3)c2C1=O [Example 144, 1-{4-[6-Ethyl-8,8-dimethyl-2-(8-oxa-3-azabicyclo[3.2.1]oct-3-yl)-5-oxo-5,6,7,8-tetrahydro-9-oxa-1,3,6-triazabenzocyclohepten-4-yl]-2-fluorophenyl}-3-(2-methoxypyrimidin-4-yl)urea]
IC50 [1]: 105 nM
IC50 (Akt-pS473 in U87MG cells): 142 nM
PI3Ka IC50 (PI3Kα (p110α/p85α)): >10000 nM
IC50 (U87MG tumour cells): 2570 nM

CCNC(=O)Nc1ccc(-c2nc(N3CC4CCC(C3)O4)nc3c2C(=O)N(C2CCOCC2)CC(C)(C)O3)cc1 [Example 14, 1-{4-[8,8-dimethyl-2-(8-oxa-3-azabicyclo[3.2.1]oct-3-yl)-5-oxo-6-(tetrahydropyran-4-yl)-5,6,7,8-tetrahydro-9-oxa-1,3,6-triazabenzocyclohepten-4-yl]phenyl}-3-ethylurea]
IC50 [1]: 41 nM
IC50 (Akt-pS473 in U87MG cells): 458 nM
PI3Ka IC50 (PI3Kα (p110α/p85α)): >10000 nM
IC50 (U87MG tumour cells): 1420 nM

CCN1CC(C)(C)Oc2nc(N3CC4CCC(C3)O4)nc(-c3ccc(NC(=O)Nc4ccc(C(F)(F)F)cc4F)cc3)c2C1=O [Example 154, 1-{4-[6-Ethyl-8,8-dimethyl-2-(8-oxa-3-azabicyclo[3.2.1]oct-3-yl)-5-oxo-5,6,7,8-tetrahydro-9-oxa-1,3,6-triazabenzocyclohepten-4-yl]phenyl}-3-(2-fluoro-4-trifluoromethylphenyl)urea]
IC50 [1]: 182 nM
IC50 (Akt-pS473 in U87MG cells): 54 nM
PI3Ka IC50 (PI3Kα (p110α/p85α)): >10000 nM
IC50 (U87MG tumour cells): 97 nM
